These results are taken from ChEMBL document CHEMBL4219047, “Optimization of peptide-based polyagonists for treatment of diabetes and obesity” (Bioorg Med Chem, 2018).

Structures are written as SMILES. Where a SMILES comes first, the peptide text is derived from it.

What all share (format): functional, cell-based
For experiment [1], the target named is T1, Glucagon-like peptide 1 receptor (Homo sapiens, UniProt P43220). The experiment can be described thus: Agonist activity at human GLP1 receptor expressed in HEK293 cells assessed as increase in cAMP level after 5 hrs by CRE driven luciferase reporter gene assay.
The target in experiment [2] is T2, Gastric inhibitory polypeptide receptor (Homo sapiens) (UniProt P48546).
T2 sequence (whole entry): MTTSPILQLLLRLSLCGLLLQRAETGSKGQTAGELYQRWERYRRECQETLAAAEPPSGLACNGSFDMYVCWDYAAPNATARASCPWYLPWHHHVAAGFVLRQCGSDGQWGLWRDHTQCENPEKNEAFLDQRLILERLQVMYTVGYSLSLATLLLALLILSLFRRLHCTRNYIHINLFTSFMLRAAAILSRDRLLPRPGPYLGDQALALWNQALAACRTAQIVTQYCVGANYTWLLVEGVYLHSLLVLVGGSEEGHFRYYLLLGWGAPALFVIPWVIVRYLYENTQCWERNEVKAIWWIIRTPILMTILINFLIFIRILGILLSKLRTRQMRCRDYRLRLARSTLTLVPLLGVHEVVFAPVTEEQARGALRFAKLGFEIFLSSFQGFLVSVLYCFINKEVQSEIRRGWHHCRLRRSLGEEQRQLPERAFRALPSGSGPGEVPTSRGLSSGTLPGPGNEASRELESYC
The experiment is described as follows: Agonist activity at human GIP receptor expressed in HEK293 cells assessed as increase in cAMP level after 5 hrs by CRE driven luciferase reporter gene assay relative to GIP. On the set-up: concentration or dose not given beside the values.

Experiment [3] addresses T3, Gastric inhibitory polypeptide receptor (Homo sapiens, UniProt P48546).
T3 sequence (P48546 whole entry): T2 sequence (whole entry)
The experiment can be described thus: Agonist activity at human GIP receptor expressed in HEK293 cells assessed as increase in cAMP level after 5 hrs by CRE driven luciferase reporter gene assay. On the technique in general: Cyclic AMP is a second messenger, typically raised through Gs and lowered through Gi signalling.

The target in experiment [4] is T4, Glucagon receptor (Homo sapiens, UniProt P47871). The experiment is described as follows: Agonist activity at human GCG receptor expressed in HEK293 cells assessed as increase in cAMP level after 5 hrs by CRE driven luciferase reporter gene assay relative to glucagon.
Experiment [5] has as its target T1, Glucagon-like peptide 1 receptor. The experiment is described as follows: Agonist activity at human GLP1 receptor expressed in HEK293 cells assessed as increase in cAMP level after 5 hrs by CRE driven luciferase reporter gene assay relative to GLP1. The arrangement: concentration or dose not given beside the values.
Experiment [6] concerns the target T4, Glucagon receptor. The experiment can be described thus: Agonist activity at human GCG receptor expressed in HEK293 cells assessed as increase in cAMP level after 5 hrs by CRE driven luciferase reporter gene assay.

T1 sequence (P43220 whole entry): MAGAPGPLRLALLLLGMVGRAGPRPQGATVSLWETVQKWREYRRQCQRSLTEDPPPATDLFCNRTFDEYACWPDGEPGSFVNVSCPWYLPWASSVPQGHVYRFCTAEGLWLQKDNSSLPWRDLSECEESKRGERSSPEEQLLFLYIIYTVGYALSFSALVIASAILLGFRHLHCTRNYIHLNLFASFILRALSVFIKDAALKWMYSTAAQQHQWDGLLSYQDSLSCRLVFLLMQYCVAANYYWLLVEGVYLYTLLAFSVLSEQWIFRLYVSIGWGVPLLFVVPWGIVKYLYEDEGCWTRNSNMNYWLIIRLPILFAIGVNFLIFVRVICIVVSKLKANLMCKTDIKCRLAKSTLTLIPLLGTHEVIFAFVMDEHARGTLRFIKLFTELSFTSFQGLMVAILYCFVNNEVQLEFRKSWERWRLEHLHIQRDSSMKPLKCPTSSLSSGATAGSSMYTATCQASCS
T4 sequence (P47871 whole entry): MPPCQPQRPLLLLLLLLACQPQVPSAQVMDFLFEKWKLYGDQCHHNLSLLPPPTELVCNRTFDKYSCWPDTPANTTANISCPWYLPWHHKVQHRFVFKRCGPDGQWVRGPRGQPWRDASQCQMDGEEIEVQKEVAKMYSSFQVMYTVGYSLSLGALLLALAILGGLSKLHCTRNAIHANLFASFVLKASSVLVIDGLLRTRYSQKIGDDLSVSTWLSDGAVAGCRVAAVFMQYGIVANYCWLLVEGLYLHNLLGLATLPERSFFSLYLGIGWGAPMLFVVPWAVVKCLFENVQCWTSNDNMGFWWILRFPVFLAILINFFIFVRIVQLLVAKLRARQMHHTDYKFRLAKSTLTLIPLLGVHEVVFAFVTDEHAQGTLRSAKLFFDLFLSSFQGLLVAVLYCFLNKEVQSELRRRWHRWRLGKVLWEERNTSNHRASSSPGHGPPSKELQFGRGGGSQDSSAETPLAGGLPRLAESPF

`CCCCCCCCCCCCCCCC(=O)N[C@@H](CCC(=O)NCCCC[C@H](NC(=O)[C@H](CC(=O)O)NC(=O)[C@H](CO)NC(=O)[C@@H](NC(=O)[C@H](Cc1ccccc1)NC(=O)[C@@H](NC(=O)CNC(=O)[C@H](CCC(N)=O)NC(=O)[C@@H](CO)NC(=O)[C@@H](N)Cc1cnc[nH]1)[C@@H](C)O)[C@@H](C)O)C(=O)N[C@@H](CO)C(=O)N[C@@H](CCCCN)C(=O)N[C@@H](Cc1ccc(O)cc1)C(=O)N[C@@H](CC(C)C)C(=O)N[C@@H](CC(=O)O)C(=O)N[C@@H](CCC(=O)O)C(=O)N[C@@H](CCCNC(=N)N)C(=O)N[C@@H](C)C(=O)N[C@@H](C)C(=O)N[C@@H](CCC(N)=O)C(=O)N[C@@H](CC(=O)O)C(=O)N[C@@H](Cc1ccccc1)C(=O)N[C@H](C(=O)N[C@@H](CCC(N)=O)C(=O)N[C@@H](Cc1c[nH]c2ccccc12)C(=O)N[C@@H](CC(C)C)C(=O)N[C@@H](CC(C)C)C(=O)N[C@@H](CC(=O)O)C(=O)N[C@H](C(N)=O)[C@@H](C)O)C(C)C)C(=O)O`: the EC50 in experiment [1] is 0.003 nM; in experiment [3], 1.65 nM; in experiment [6] it was 0.006 nM. In addition, the results for the Activity in experiment [2], in experiment [4] and in experiment [5] were 1%, 533% and 933%, respectively.
Regarding `CCCCCCCCCCCCCCCC(=O)N[C@@H](CCC(=O)NCCCC[C@H](NC(=O)[C@H](CC(=O)O)NC(=O)[C@H](CO)NC(=O)[C@@H](NC(=O)[C@H](Cc1ccccc1)NC(=O)[C@@H](NC(=O)CNC(=O)[C@H](CCC(N)=O)NC(=O)CN(C)C(=O)[C@@H](N)Cc1cnc[nH]1)[C@@H](C)O)[C@@H](C)O)C(=O)N[C@@H](CO)C(=O)N[C@@H](CCCCN)C(=O)N[C@@H](Cc1ccc(O)cc1)C(=O)N[C@@H](CC(C)C)C(=O)N[C@@H](CC(=O)O)C(=O)N[C@@H](CCC(=O)O)C(=O)N[C@@H](CCCNC(=N)N)C(=O)N[C@@H](C)C(=O)N[C@@H](C)C(=O)N[C@@H](CCC(N)=O)C(=O)N[C@@H](CC(=O)O)C(=O)N[C@@H](Cc1ccccc1)C(=O)N[C@H](C(=O)N[C@@H](CCC(N)=O)C(=O)N[C@@H](Cc1c[nH]c2ccccc12)C(=O)N[C@@H](CC(C)C)C(=O)N[C@@H](CC(C)C)C(=O)N[C@@H](CC(=O)O)C(=O)N[C@H](C(N)=O)[C@@H](C)O)C(C)C)C(=O)O`, the figures for the EC50 in experiment [1], in experiment [3] and in experiment [6] were 0.115 nM, 5.83 nM and 0.016 nM, respectively. Further, the results for the Activity in experiment [2], in experiment [4] and in experiment [5] were 0%, 200% and 24%, respectively.
Consider `CC[C@H](C)[C@H](NC(=O)[C@H](Cc1ccccc1)NC(=O)[C@H](CCC(=O)O)NC(=O)[C@H](CCCCN)NC(=O)[C@H](C)NC(=O)[C@H](C)NC(=O)[C@H](CCC(N)=O)NC(=O)[C@H](CCC(=O)O)NC(=O)[C@H](CC(=O)O)NC(=O)[C@H](CC(C)C)NC(=O)[C@H](Cc1ccc(O)cc1)NC(=O)[C@H](CCCCN)NC(=O)[C@H](CO)NC(=O)[C@H](Cc1ccc(O)cc1)NC(=O)[C@H](CC(=O)O)NC(=O)[C@H](CO)NC(=O)[C@@H](NC(=O)[C@H](Cc1ccccc1)NC(=O)[C@@H](NC(=O)CNC(=O)[C@H](CCC(N)=O)NC(=O)[C@H](CO)NC(=O)[C@@H](N)Cc1cnc[nH]1)[C@@H](C)O)[C@@H](C)O)C(=O)N[C@@H](C)C(=O)N[C@@H](Cc1c[nH]c2ccccc12)C(=O)N[C@@H](CC(C)C)C(=O)N[C@@H](CCSC)C(=O)N[C@@H](CC(N)=O)C(=O)N[C@H](C(N)=O)[C@@H](C)O` (H-HSQGTFTSDYSKYLDEQAAKEFIAWLMNT-NH2), for which the EC50 in experiment [1] turned out to be 0.022 nM; in experiment [3], 6.26 nM; in experiment [6] it was 0.031 nM. Also, the Activity in experiment [2] came out at 0%; in experiment [4], 103%; in experiment [5] it was 127%.
As to `CCCCCCCCCCCCCCCC(=O)N[C@@H](CCC(=O)NCCCC[C@H](NC(=O)[C@H](CC(=O)O)NC(=O)[C@H](CO)NC(=O)[C@@H](NC(=O)[C@H](Cc1ccccc1)NC(=O)[C@@H](NC(=O)CNC(=O)[C@H](CCC(N)=O)NC(=O)C(C)(C)NC(=O)[C@@H](N)Cc1cnc[nH]1)[C@@H](C)O)[C@@H](C)O)C(=O)N[C@@H](CO)C(=O)N[C@@H](CCCCN)C(=O)N[C@@H](Cc1ccc(O)cc1)C(=O)N[C@@H](CC(C)C)C(=O)N[C@@H](CC(=O)O)C(=O)N[C@@H](CCC(=O)O)C(=O)N[C@@H](CCCNC(=N)N)C(=O)N[C@@H](C)C(=O)N[C@@H](C)C(=O)N[C@@H](CCC(N)=O)C(=O)N[C@@H](CC(=O)O)C(=O)N[C@@H](Cc1ccccc1)C(=O)N[C@H](C(=O)N[C@@H](CCC(N)=O)C(=O)N[C@@H](Cc1c[nH]c2ccccc12)C(=O)N[C@@H](CC(C)C)C(=O)N[C@@H](CC(C)C)C(=O)N[C@@H](CC(=O)O)C(=O)NCC(=O)N[C@@H](CCCNC(=N)N)C(=O)NCC(N)=O)C(C)C)C(=O)O`, the EC50 in experiment [1] was 0.004 nM; in experiment [3], 0.133 nM. For the same compound, the Activity in experiment [2] stood at 15%; in experiment [4] it was 457%; in experiment [5], 700%.
As for `CCCCCCCCCCCCCCCC(=O)N[C@@H](CCC(=O)NCCCC[C@H](NC(=O)[C@H](CC(=O)O)NC(=O)[C@H](CO)NC(=O)[C@@H](NC(=O)[C@H](Cc1ccccc1)NC(=O)[C@@H](NC(=O)CNC(=O)[C@H](CCC(N)=O)NC(=O)[C@@H](CO)NC(=O)[C@@H](N)Cc1cnc[nH]1)[C@@H](C)O)[C@@H](C)O)C(=O)N[C@@H](CO)C(=O)N[C@@H](CCCCN)C(=O)N[C@@H](Cc1ccc(O)cc1)C(=O)N[C@@H](CC(C)C)C(=O)N[C@@H](CC(=O)O)C(=O)N[C@@H](CCC(=O)O)C(=O)N[C@@H](CCCNC(=N)N)C(=O)N[C@@H](C)C(=O)N[C@@H](C)C(=O)N[C@@H](CCC(N)=O)C(=O)N[C@@H](CC(=O)O)C(=O)N[C@@H](Cc1ccccc1)C(=O)N[C@H](C(=O)N[C@@H](CCC(N)=O)C(=O)N[C@@H](Cc1c[nH]c2ccccc12)C(=O)N[C@@H](CC(C)C)C(=O)N[C@@H](CC(C)C)C(=O)N[C@@H](CC(=O)O)C(=O)NCC(=O)N[C@@H](CCCNC(=N)N)C(=O)NCC(N)=O)C(C)C)C(=O)O`, the Activity in experiment [2] stood at 2%; in experiment [4], 800%; in experiment [5], 1400%.
For `CC[C@H](C)[C@H](NC(=O)[C@H](Cc1ccccc1)NC(=O)[C@H](CCC(=O)O)NC(=O)[C@H](CCCCN)NC(=O)[C@H](C)NC(=O)[C@H](C)NC(=O)[C@H](CCC(N)=O)NC(=O)[C@H](CCC(=O)O)NC(=O)[C@H](CC(=O)O)NC(=O)[C@H](CC(C)C)NC(=O)[C@H](Cc1ccc(O)cc1)NC(=O)[C@H](CCCCN)NC(=O)[C@H](CO)NC(=O)[C@H](Cc1ccc(O)cc1)NC(=O)[C@H](CC(=O)O)NC(=O)[C@H](CO)NC(=O)[C@@H](NC(=O)[C@H](Cc1ccccc1)NC(=O)[C@@H](NC(=O)CNC(=O)[C@H](CCC(=O)O)NC(=O)[C@H](CO)NC(=O)[C@@H](N)Cc1cnc[nH]1)[C@@H](C)O)[C@@H](C)O)C(=O)N[C@@H](C)C(=O)N[C@@H](Cc1c[nH]c2ccccc12)C(=O)N[C@@H](CC(C)C)C(=O)N[C@@H](CCSC)C(=O)N[C@@H](CC(N)=O)C(=O)N[C@H](C(N)=O)[C@@H](C)O` (H-HSEGTFTSDYSKYLDEQAAKEFIAWLMNT-NH2), the EC50 in experiment [1] was determined as 0.03 nM; in experiment [3], 0.867 nM; in experiment [6], 5.22 nM. Besides, the Activity in experiment [2] was determined as 2%; in experiment [4] it was 1%; in experiment [5], 93%.
On to `CCCCCCCCCCCCCCCC(=O)N[C@@H](CCC(=O)NCCCC[C@H](NC(=O)[C@H](CC(=O)O)NC(=O)[C@H](CO)NC(=O)[C@@H](NC(=O)[C@H](Cc1ccccc1)NC(=O)[C@@H](NC(=O)CNC(=O)[C@H](CCC(N)=O)NC(=O)[C@@H](C)NC(=O)[C@@H](N)Cc1cnc[nH]1)[C@@H](C)O)[C@@H](C)O)C(=O)N[C@@H](CO)C(=O)N[C@@H](CCCCN)C(=O)N[C@@H](Cc1ccc(O)cc1)C(=O)N[C@@H](CC(C)C)C(=O)N[C@@H](CC(=O)O)C(=O)N[C@@H](CCC(=O)O)C(=O)N[C@@H](CCCNC(=N)N)C(=O)N[C@@H](C)C(=O)N[C@@H](C)C(=O)N[C@@H](CCC(N)=O)C(=O)N[C@@H](CC(=O)O)C(=O)N[C@@H](Cc1ccccc1)C(=O)N[C@H](C(=O)N[C@@H](CCC(N)=O)C(=O)N[C@@H](Cc1c[nH]c2ccccc12)C(=O)N[C@@H](CC(C)C)C(=O)N[C@@H](CC(C)C)C(=O)N[C@@H](CC(=O)O)C(=O)N[C@H](C(N)=O)[C@@H](C)O)C(C)C)C(=O)O`, for which the results for the EC50 in experiment [1] and in experiment [6] were 0.04 nM and 0.009 nM, respectively. Further, the Activity in experiment [2] was found to be 1%; in experiment [4] it was 356%; in experiment [5] it was 70%.

For orientation: EC50 means the concentration needed to bring the measured effect to its halfway point.
